Data from patent US11786512B2, “Stable pharmaceutical compositions of dihydroergotamine mesylate” (Slayback Pharma LLC, priority 2019, dated 2023).
Counter-ions that a name gives are not always drawn. Like-named read-outs stand apart in the source and are kept apart here.

How the values were obtained:
[1] = Rate of epimerization of DHE mesylate as a function of pH; type: physicochemical
From the text: Maintaining the pH above 5.0 in the compositions prepared according to the present invention results in a better stability profile when compared to DHE 45 maintained at a pH of 3.4-4.9.

migraine = conditions: cited from earlier work

Compound	rate of epimerization ([1]; pH of less than 4.0)	rate of epimerization ([1]; pH of more than 5.0)	onset of therapeutic efficacy (migraine; intranasal) [min]	onset of therapeutic efficacy (migraine; oral or sublingual delivery) [min]	onset of action (migraine; parenteral administration)
CN1C[C@H](C(=O)N[C@]2(C)O[C@@]3(O)[C@@H]4CCCN4C(=O)[C@H](Cc4ccccc4)N3C2=O)C[C@@H]2c3cccc4[nH]cc(c34)C[C@H]21 [DHE mesylate, Dihydroergotamine mesylate]	higher	significantly lesser	–	–	–
CN1C[C@H](C(=O)N[C@]2(C)O[C@@]3(O)[C@@H]4CCCN4C(=O)[C@H](Cc4ccccc4)N3C2=O)C[C@@H]2c3cccc4[nH]cc(c34)C[C@H]21 [DHE, Dihydroergotamine]	–	–	45	120	less than 30 minutes
